Data from patent US9320718B2, “Multilayer coating form of orally administered pharmaceutical composition containing omega-3 fatty acid or alkyl ester thereof and statin based drug” (KUHNIL PHARM. CO., LTD., priority 2012, dated 2016).
Blank lines part the entries; values can stand above or below the molecule they belong to.

Tests used:
Format in all cases: physicochemical
[1] = Compatibility of rosuvastatin and coating material: related compounds on storage under severe conditions (HPLC); conditions: rosuvastatin 0.5 mg with coating material 2.5 mg, vacuum-dried, stored at about 60° C., relative humidity about 85%
Method: To form a rosuvastatin-containing drug-coating layer, compatibility of rosuvastatin with various coating materials (coating agents and surfactants) were evaluated. About 2.5 mg of each coating material as shown in Table 1 was dissolved in 5 mL of a 75% aqueous ethanol solution, and about 0.5 mg of rosuvastatin was added thereto and then completely dissolved. About 0.5 mg of rosuvastatin alone was completely dissolved in 5 mL of a 75% aqueous ethanol solution as a control group for the compatibility evaluation. Each of the resulting solutions was vacuum-dried at about 50° C. for about 24 hours to completely remove the solvent, thereby preparing a test sample. While each test temple was stored under severe conditions (at a temperature of about 60° C. and a relative humidity of about 85%), a degree of generation of related compounds with time was observed. The related compounds were analyzed by high-performance liquid chromatography (HPLC) in the following manner.
<Rosuvastatin Analysis Method>
The test sample was dissolved in 25 mL of methanol, followed by a 2-fold dilution with a mobile phase and filtration through a 0.45-um filter, thereby preparing an analysis sample.
Mobile phase; Acetonitrile: 0.5% (v/v) aqueous formic acid solution=50:50

[2] = Compatibility of atorvastatin and coating material: related compounds on storage under severe conditions (HPLC); conditions: atorvastatin 0.5 mg with coating material 2.5 mg, vacuum-dried, stored at about 60° C., relative humidity about 85%
Method: (§1) To form an atorvastatin-containing drug-coating layer, compatibility of atorvastatin with various coating materials (coating agents and surfactants) were evaluated. About 2.5 mg of each coating material as shown in Table 2 was dissolved in 5 mL of a 75% aqueous ethanol solution, and about 0.5 mg of atorvastatin was added thereto and then completely dissolved. About 0.5 mg of atorvastatin was completely dissolved in 5 mL of a 75% aqueous ethanol solution as a control group for the compatibility evaluation. Each of the resulting solutions was vacuum-dried at about 50° C. for about 24 hours to completely remove the solvent, thereby preparing test samples. While each test temple was stored under severe conditions (at a temperature of about 60° C. and a relative humidity of about 85%), a degree of generation of related compounds with time was observed. The related compounds were analyzed by HPLC in the following manner.
<Atorvastatin Analysis Method>
(§2) Each test sample was dissolved in 25 mL of methanol, followed by a 2-fold dilution with a mobile phase and filtration through a 0.45-um filter, thereby preparing analysis samples.
Mobile phase; acetonitrile: 0.5% (v/v) aqueous formic acid solution=50:50

[3] = Compatibility of pitavastatin and coating material: related compounds on storage under severe conditions (HPLC); conditions: pitavastatin 0.5 mg with coating material 2.5 mg, vacuum-dried, stored at about 60° C., relative humidity about 85%
Method: as §1, with “To form a pitavastatin-containing drug-coating layer,” for “To form an atorvastatin-containing drug-coating layer,”, “compatibility of pitavastatin with various” for “compatibility of atorvastatin with various”, “in Table 3 was dissolved” for “in Table 2 was dissolved”, “mg of pitavastatin was added” for “mg of atorvastatin was added”, “mg of pitavastatin alone was completely” for “mg of atorvastatin was completely”, “degree of generated related compounds” for “degree of generation of related compounds”
<Pitavastatin Analysis Method>
as §2
Mobile phase; acetonitrile: 0.1% (v/v) aqueous trifluoroacetic acid (TFA) solution=60:40

Related compound (%, 1st week) [1]: 1.4%
Related compound (%, 1st week) ([1]; listed as rosuvastatin): About 1.4%
Related compound (%, 3rd week) [1]: 5.2%
Related compound (%, 3rd week) ([1]; listed as rosuvastatin): about 5.4%
Compound: CC(C)c1nc(N(C)S(C)(=O)=O)nc(-c2ccc(F)cc2)c1/C=C/[C@@H](O)C[C@@H](O)CC(=O)O [Rosuvastatin]

Related compound (%, 1st week) [2]: 0.3%
Related compound (%, 1st week) ([2]; listed as atorvastatin): About 0.3%
Related compound (%, 3rd week) [2]: 3.3%
Related compound (%, 3rd week) ([2]; listed as atorvastatin): about 3.3%
Compound: CC(C)c1c(C(=O)Nc2ccccc2)c(-c2ccccc2)c(-c2ccc(F)cc2)n1CC[C@@H](O)C[C@@H](O)CC(=O)O [Atorvastatin]

Related compound (%, 1st week) [3]: 0.1%
Related compound (%, 1st week) ([3]; listed as pitavastatin): About 0.1%
Related compound (%, 3rd week) [3]: 0.2%
Related compound (%, 3rd week) ([3]; listed as pitavastatin): about 0.2%
Compound: O=C(O)C[C@H](O)C[C@H](O)/C=C/c1c(C2CC2)nc2ccccc2c1-c1ccc(F)cc1 [Pitavastatin]
